Assay results published in patent US20210255184A1, “Biosensor Device and Methods” (The New Zealand Institute for Plant and Food Research …, priority 2018, published 2021).

Legend:
[1] = EIS sensor, empty liposomes (specificity control); format: biochemical; conditions: empty liposomes without receptor
Experimental: PBS solution was prepared by immersing one tablet of PBS in 200 ml of milli-Q water (according to manufacturers instructions) and filtered using 0.2-μm syringe filter. The pH of the prepared buffer solution was measured with a pH meter. OrX liposomes or OrX/Orco liposomes were diluted 100 fold in PBS buffer solution (pH=7.4) and the COOH-activated electrodes were incubated in that buffer solution at room temperature for one hour. Then, the electrodes were washed extensively with PBS buffer solution to wash out any unbound liposomes.
PBS (pH=7.4) was used as an electrolyte to conduct electrochemical measurements. PBS buffer was degassed for about 30 minutes prior to electrochemical measurements. Odorant solutions of concentration ranging from 1 aM to 1 μM were prepared by sequential dilution in PBS solution containing 1% DMSO. OR immobilized electrodes were incubated in relevant odorant solution for ˜30 minutes each and washed gently with PBS before EIS measurements.
EIS measurements were done in a 3 electrode cell containing Ag/AgCl (3 M NaCl, 0.209 V vs. SHE) reference electrode, coiled platinum wire as a counter electrode and the gold disk as a working electrode at a fixed voltage of −0.7 using PalmSens potentiostat. Degassed PBS was used as an electrolyte.
EIS measurements were performed on gold electrodes functionalised with OrX liposomes (either Or10a or Or22a), OrX/Orco liposomes, or empty liposomes prior to and after target ligand or control ligand incubation with increasing concentrations (1 aM to 100 μM). Dose response curves were obtained by defining sensor response as −(ΔRp/R^op) versus log[C(Ligand)]. FIG. 4a presents the EIS response in terms of Nyquist plot for the Or10a liposome functionalized sensors when exposed to a solution containing one of the known target ligands of Or10a, methyl salicylate, at various concentrations. […] The dose response curve (FIG. 4b) was obtained by plotting the change in polarization resistance −(ΔRp/R^op) versus log[conc(Ligand)], as the sensor response. […]

Orco = target: T1, Orco (Drosophila melanogaster, UniProt Q9VNB5); test: GFET sensor, Orco liposomes (control); format: biochemical; conditions: Orco only liposomes
T1 construct: his-tag; made in house; host or cells: baculovirus-infected Sf9 cells
T1 sequence (Q9VNB5 1-486): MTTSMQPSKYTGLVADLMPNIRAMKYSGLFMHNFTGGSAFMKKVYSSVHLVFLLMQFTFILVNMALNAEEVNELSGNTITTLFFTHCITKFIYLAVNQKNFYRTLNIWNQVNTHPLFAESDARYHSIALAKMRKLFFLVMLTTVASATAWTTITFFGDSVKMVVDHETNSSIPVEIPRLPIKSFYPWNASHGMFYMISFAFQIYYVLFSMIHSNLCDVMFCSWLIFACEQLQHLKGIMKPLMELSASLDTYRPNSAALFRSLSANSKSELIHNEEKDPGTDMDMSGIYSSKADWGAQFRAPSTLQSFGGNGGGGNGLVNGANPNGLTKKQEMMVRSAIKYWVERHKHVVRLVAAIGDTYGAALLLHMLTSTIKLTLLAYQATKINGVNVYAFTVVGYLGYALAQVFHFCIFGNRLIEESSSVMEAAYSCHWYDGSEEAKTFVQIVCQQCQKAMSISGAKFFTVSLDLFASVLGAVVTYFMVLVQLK
Experimental: The OR liposomes were functionalised onto the graphene surface via a non-covalent route using PBASE as the molecular linker as shown in FIG. 13. The OR liposomes were diluted at 1:10 ratio with 1×PBS (pH7.4). The cleaned GFETs were immersed in 1 mM PBASE solution in methanol for 1 hour. The devices were washed three times in methanol and subsequently washed three times in 1×PBS to remove the excess PBASE and residual methanol in the channel respectively. The OR liposomes were diluted 1:10 with 1×PBS (pH 7.4) and 100 μL of the OR dilution was placed in the graphene channel and incubated at room temperature for one hour in a closed petri dish. After OR liposome functionalization, the devices were washed in 1×PBS for 10 s before measurements.
The OR liposome immobilised GFET device with a PDMS well mounted on it was placed onto the probe station and the source and drain connections were made by micromanipulators. 100 μl of PBS containing 1% dimethyl sulfoxide (DMSO) was added to the well and the Ag/AgCl standard electrode was placed into the buffer. The stock solution of ligands at 100 mM concentrations were prepared by dissolving them in DMSO as they are not stable in aqueous buffer. The stock solution was stored at 4° C. The ligand solution for sensing was prepared by diluting the stock solution in 1×PBS buffer containing 1% DMSO to set concentrations from 10 fM to 100 pM. […]

Structure (SMILES)	sensor response to ligand [1]	sensor response to target ligand (Orco)
CCCCCC(=O)OC [methyl hexanoate]	negligible response	lack of response
COC(=O)c1ccccc1O [methyl salicylate]	negligible response	lack of response
